Measured values from patent US20230150981A1, “N-HETEROARYLALKYL-2-(HETEROCYCLYL AND HETEROCYCLYLMETHYL) ACETAMIDE DERIVATIVES AS SSTR4 AGONISTS” (Takeda Pharmaceutical Compnay Limited, priority 2020, published 2023).

How the values were obtained:
SSTR4 [1] = biological target: T1, SSTR4 (Homo sapiens, UniProt P31391); experiment: SSTR4 I-125 somatostatin competition binding assay (CHO-K1 membranes); conditions: competition with I-125 somatostatin, membranes from CHO-K1 overexpressing SSTR4; read-out: SSTR4 Binding pIC50 (converted)
T1 construct: host or cells: CHO-K1
T1 sequence (P31391 whole entry): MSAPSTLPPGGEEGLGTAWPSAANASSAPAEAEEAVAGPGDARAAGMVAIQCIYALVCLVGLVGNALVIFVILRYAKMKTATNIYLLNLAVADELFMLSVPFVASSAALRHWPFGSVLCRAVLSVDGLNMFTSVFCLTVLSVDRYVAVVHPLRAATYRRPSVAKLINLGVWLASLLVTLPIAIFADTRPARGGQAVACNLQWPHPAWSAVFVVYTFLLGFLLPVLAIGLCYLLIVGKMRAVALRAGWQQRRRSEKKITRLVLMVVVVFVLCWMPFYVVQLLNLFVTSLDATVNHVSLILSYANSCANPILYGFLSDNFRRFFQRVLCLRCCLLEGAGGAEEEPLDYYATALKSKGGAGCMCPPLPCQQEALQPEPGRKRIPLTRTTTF
Protocol: SSTR4 I-125 Somatostatin Competition Binding Assay
Membranes from CHO-K1 cells overexpressing SSTR4 are purchased from Perkin Elmer (catalog number ES-524-M400UA). Test compounds are suspended in DMSO and then diluted in assay buffer (25 mM HEPES pH 7.4, 10 mM MgCl2, 1 mM CaCl2), 0.5% BSA) plus 0.2 nM I-125 labeled somatostatin (Perkin Elmer catalog number NEX389). Fifty μL of compound/I-125 somatostatin in assay buffer are added per well to 96-well poly-propylene plate. Then 1 μg of SSTR4 membranes in 50 μL assay buffer are added per well. The Plate is incubated for 60 minutes at room temperature. FilterMat A filters (Perkin Elmer catalog number 1450-421) are pre-soaked in 0.5% PEI (Sigma catalog number P3143). The contents of the assay plate are transferred to filters with a TomTech harvester and washed 5 times with 20 mM HEPES, 100 mM NaCl. The filters are dried in a microwave oven then transferred to sample bag containing a scintillator sheet (Perkin Elmer catalog number 1450-441). The scintillator sheets are melted to filters using a heat block. The filters are then read in a MicroBeta scintillation counter. Binding Ki curves are generated using Activity Base for Screening Data Management and the results are reported as pIC50.

SSTR1 = biological target: T2, SSTR1 (Homo sapiens, UniProt P30872); experiment: SSTR1 I-125 somatostatin competition binding assay for selectivity versus SSTR1 (CHO-K1 membranes); conditions: competition with I-125 somatostatin, membranes from CHO-K1 overexpressing SSTR1; read-out: SSTR1 Binding pIC50 (converted)
T2 construct: purchased Perkin Elmer ES-520-M400UA; host or cells: CHO-K1 membranes
T2 sequence (P30872 whole entry): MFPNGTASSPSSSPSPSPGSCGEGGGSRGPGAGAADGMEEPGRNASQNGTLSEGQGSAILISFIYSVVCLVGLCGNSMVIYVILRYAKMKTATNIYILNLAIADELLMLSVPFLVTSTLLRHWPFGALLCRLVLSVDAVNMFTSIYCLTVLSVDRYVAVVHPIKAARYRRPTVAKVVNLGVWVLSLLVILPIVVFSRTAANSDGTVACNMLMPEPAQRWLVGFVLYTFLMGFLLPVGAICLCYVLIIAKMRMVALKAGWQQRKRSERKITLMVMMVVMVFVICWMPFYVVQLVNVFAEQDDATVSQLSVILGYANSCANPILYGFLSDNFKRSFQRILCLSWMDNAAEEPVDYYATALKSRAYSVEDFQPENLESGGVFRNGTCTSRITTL
Protocol: SSTR1 I-125 Somatostatin Competition Binding Assay for Selectivity Versus SSTR1
Membranes from CHO-K1 cells overexpressing SSTR1 are purchased from Perkin Elmer (catalog number ES-520-M400UA). Test compounds are suspended in DMSO and then diluted in assay buffer (25 mM HEPES pH 7.4, 10 mM MgCl2, 1 mM CaCl2), 0.5% BSA) plus 0.4 nM I-125 labeled somatostatin (Perkin Elmer catalog number NEX389). Fifty μL of compound/I-125 somatostatin in assay buffer are added per well to 96-well poly-propylene plate. Then 10 μg of SSTR1 membranes in 50 μL assay buffer are added per well. The plate is incubated for 60 minutes at room temperature. FilterMat A filters (Perkin Elmer catalog number 1450-421) are pre-soaked in 0.5% PEI (Sigma catalog number P3143). The contents of the assay plate are transferred to filters with a TomTech harvester and washed 5 times with 20 mM HEPES, 100 mM NaCl. The filters are dried in a microwave oven then transferred to sample bag containing a scintillator sheet (Perkin Elmer catalog number 1450-441). The scintillator sheets are melted to the filters using a heat block. The filters are then read in a MicroBeta scintillation counter. Binding Ki curves are generated using Activity Base for Screening Data Management and the results are reported as pIC50.

SSTR4 [2] = biological target: T1, SSTR4; experiment: Inhibition of forskolin stimulated cAMP in CHO-K1 cells overexpressing SSTR4; type: cell-based; conditions: read-out: SSTR4 Activity pEC50 (converted)
Summary of the method: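 CHO-K1 cells overexpressing SSTR4 treated 30 min at room temperature with compound in Krebs Ringer buffer containing 0.5% BSA, 300 μM IBMX and 350 nM forskolin. Intracellular cAMP measured by HTRF LANCE Ultra (665/615 nm); pEC50 values reported.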

IC50 (SSTR4 [1]) | IC50 (SSTR1) | EC50 (SSTR4 [2]) | SMILES
1000 nM | 7940 nM | 25.1 nM | CC(C)(NC(=O)C[C@@H]1CCCN1)c1nccc2ccccc12 [Example 23, (S)-N-(2-(isoquinolin-1-yl)propan-2-yl)-2-(pyrrolidin-2-yl)acetamide]
2 nM | 251 nM | 0.2 nM | CC(C)[C@@H](CN1CCC1)C(=O)N[C@H](c1ccccc1)C(F)F [Example 179, (S)-2-(azetidin-1-ylmethyl)-N-((R)-2,2-difluoro-1-phenylethyl)-3-methylbutanamide]
39.8 nM | 15800 nM | 3.16 nM | O=C(CCN1CCC1)NC(c1cccc(F)c1)C(F)(F)F (single isomer, unassigned) [Example 208]
2 nM | 126 nM | 0.501 nM | COc1ccccc1[C@@H](NC(=O)[C@H](CN1CCC1)C(C)C)C(F)F [Example 188, (S)-2-(azetidin-1-ylmethyl)-N-((R)-2,2-difluoro-1-(2-methoxyphenyl)ethyl)-3-methylbutanamide]
79.4 nM | 6310 nM | 3.98 nM | C[C@@H](CN1CCC1)C(=O)NC(C)(C)c1cccc(F)c1 (single isomer, unassigned) [Example 153]
20 nM | 3160 nM | 2 nM | O=C(CCN1CCC1)NC(c1ccc(F)cc1)C(F)(F)F (single isomer, unassigned) [Example 190]
501 nM | > 50100 nM | 79.4 nM | COc1c(Cl)cccc1C(C)(C)NC(=O)C[C@@H]1CCCN1C [Example 112, (S)-N-(2-(3-chloro-2-methoxyphenyl)propan-2-yl)-2-(1-methylpyrrolidin-2-yl)acetamide]
79.4 nM | 12600 nM | 3.98 nM | C[C@@H](C(=O)NC(C)(C)c1nccc2ccccc12)[C@@H]1CCCN1C (racemic) [Example 110, (R)-N-(2-(isoquinolin-1-yl)propan-2-yl)-2-((S)-1-methylpyrrolidin-2-yl)propanamide and (S)-N-(2-(isoquinolin-1-yl)propan-2-yl)-2-((R)-1-methylpyrrolidin-2-yl)propanamide]
3.16 nM | 631 nM | 0.794 nM | Cc1cnc(C(C)(C)NC(=O)CC2CCCCN2C)c2ccccc12 (stereo not drawn) [Example 42, N-(2-(4-methylisoquinolin-1-yl)propan-2-yl)-2-(1-methylpiperidin-2-yl)acetamide]
316 nM | 20000 nM | 25.1 nM | CN1CCC[C@H]1CC(=O)NC(C)(C)c1cccc(Cl)c1Cl [Example 80, (S)-N-(2-(2,3-dichlorophenyl)propan-2-yl)-2-(1-methylpyrrolidin-2-yl)acetamide]
100 nM | 7940 nM | 7.94 nM | C[C@@H](CN1CCC1)C(=O)NC1(c2ccccc2F)CC1 (single isomer, unassigned) [Example 151]
50.1 nM | 6310 nM | 3.16 nM | Cc1ccc(C(C)(C)NC(=O)[C@@H](C)CN2CCC2)cc1 (single isomer, unassigned) [Example 149]
15.8 nM | 2000 nM | 1.58 nM | Cc1c(F)cccc1C(C)(C)NC(=O)[C@H](C)CN1CCC1 (single isomer, unassigned) [Example 142]
100 nM | 12600 nM | 3.98 nM | CCN1CCC[C@@H]1CC(=O)NC(C)(C)COc1ncccc1C(F)(F)F [Example 57, (R)-2-(1-ethylpyrrolidin-2-yl)-N-(2-methyl-1-((3-(trifluoromethyl)pyridin-2-yl)oxy)propan-2-yl)acetamide]
200 nM | 20000 nM | 50.1 nM | CN1CCC[C@@H]1CC(=O)NC(C)(C)c1ccc(Cl)cc1 [Example 40, (R)-N-(2-(4-chlorophenyl)propan-2-yl)-2-(1-methylpyrrolidin-2-yl)acetamide]
3.16 nM | 501 nM | 0.2 nM | CC(C)[C@@H](CN1CCC1)C(=O)N[C@H](c1ccc(F)cc1)C(F)F [Example 196, (S)-2-(azetidin-1-ylmethyl)-N-((R)-2,2-difluoro-1-(4-fluorophenyl)ethyl)-3-methylbutanamide]
25.1 nM | 5010 nM | 2 nM | CC[C@@H](CN1CCC1)C(=O)NC(C)(C)c1ccccc1F (single isomer, unassigned) [Example 200]
316 nM | 10000 nM | 39.8 nM | CN1CCC[C@H]1CC(=O)NC(C)(C)[C@@H]1CCc2ccccc2O1 (single isomer, unassigned) [Example 128]
20 nM | 3980 nM | 2 nM | Cc1cccc2c(C(C)(C)NC(=O)C[C@H]3CCCCN3C)noc12 (single isomer, unassigned) [Example 43]
398 nM | 25100 nM | 12.6 nM | Cc1cccnc1OCC(C)(C)NC(=O)C[C@H]1CCCN1C [Example 46, (R)-N-(2-methyl-1-((3-methylpyridin-2-yl)oxy)propan-2-yl)-2-(1-methylpyrrolidin-2-yl)acetamide]
1000 nM | 39800 nM | 100 nM | Cc1cccnc1OCC1(NC(=O)C[C@@H]2CCCN2C)CCC1 [Example 55, (S)-N-(1-(((3-methylpyridin-2-yl)oxy)methyl)cyclobutyl)-2-(1-methylpyrrolidin-2-yl)acetamide]
251 nM | 25100 nM | 25.1 nM | CCN1CCCC1CC(=O)NC(C)(C)COc1ncccc1C (stereo not drawn) [Example 62, 2-(1-ethylpyrrolidin-2-yl)-N-(2-methyl-1-((3-methylpyridin-2-yl)oxy)propan-2-yl)acetamide]
3.16 nM | 631 nM | 0.1 nM | CC[C@@H](CN1CCC1)C(=O)N[C@H](c1ccc(F)cc1)C(F)F [Example 204, (S)-2-(azetidin-1-ylmethyl)-N-((R)-2,2-difluoro-1-(4-fluorophenyl)ethyl)butanamide]
63.1 nM | 25100 nM | 31.6 nM | O=C(CCN1CCC1)N[C@H](c1ccccc1)C(F)F (single isomer, unassigned) [Example 201]
200 nM | 15800 nM | 15.8 nM | CN1CCC[C@@H]1CC(=O)NC(C)(C)c1cccc(Cl)c1Cl [Example 96, (R)-N-(2-(2,3-dichlorophenyl)propan-2-yl)-2-(1-methylpyrrolidin-2-yl)acetamide]
3160 nM | > 50100 nM | 79.4 nM | Cc1cccnc1OCC(C)(C)NC(=O)CC12CCCN1CCC2 [Example 77, N-(2-methyl-1-((3-methylpyridin-2-yl)oxy)propan-2-yl)-2-(tetrahydro-1H-pyrrolizin-7a(5H)-yl)acetamide]
126 nM | 20000 nM | 1.26 nM | O=C(CCN1CCC1)NC(c1ccccc1F)C(F)(F)F (single isomer, unassigned) [Example 209]
398 nM | > 50100 nM | 25.1 nM | CC(C)(NC(=O)CCN1CCC1)c1cccc(F)c1 [Example 163, 3-(azetidin-1-yl)-N-(2-(3-fluorophenyl)propan-2-yl)propanamide]
